Values of other authors in US8586094B2, “Coated tablets” (Jagotec AG, priority 2000, dated 2013).
Where two headings read alike, the source gives them in different places.

CC(C)(Oc1ccc(C(=O)c2ccc(Cl)cc2)cc1)C(=O)O [fenofibric acid]
elimination / plasma half-life: approximately twenty
elimination / plasma half-life (listed as Fenofibric acid): about 20 hours
